This is an account of results in publication PMC6425606 (Journal for Immunotherapy of Cancer, 2019).

The nature of data set [1]: Epacadostat plasma pharmacokinetics (LC-MS/MS, noncompartmental analysis). It counts as in vivo, human. How it is done: SAS® software, version 9.4 (SAS Institute Inc., Cary, NC) was used to generate all tables, graphs, and statistical analyses. […] Descriptive statistics were used to present summaries of continuous and categorical variables. Survival data (OS, PFS) were analyzed using the nonparametric Kaplan-Meier method.
Thirty-six patients were evaluable for pharmacokinetic analyses. […] Steady-state pharmacokinetic observations (Cycle 1, Day 10) are summarized in Additional file 1: Table S3.

Details of data set [2]: method as in PMID 28053021. The conditions noted are these: epacadostat monotherapy 300 mg BID, patients with advanced malignancies; cited from earlier work.
The subject of a further data set is metastatic melanoma. On the set-up: method as in PMID 20525992, PMID 27622997, PMID 26027431. Particulars: ipilimumab monotherapy, previously treated patients; cited from earlier work.
For another data set, the system named is untreated melanoma. The conditions noted are these: human, in vivo; cited from earlier work.
[3] abbreviates: epacadostat 25 mg BID (n=10), steady state Cycle 1 Day 10.
Setting [4] is: epacadostat 50 mg BID continuous (n=13), steady state Cycle 1 Day 10.
Setting [5] is: epacadostat 50 mg BID intermittent (n=7), steady state Cycle 1 Day 10.
[6] abbreviates: epacadostat 300 mg BID (n=6), steady state Cycle 1 Day 10.

Like-named read-outs stand apart in the source and are kept apart here.

`NS(=O)(=O)NCCNc1nonc1C(=NO)Nc1ccc(F)c(Br)c1` [epacadostat]: the “Increase of pharmacokinetic exposures (Cmax, AUC0–12h) with dose” value in data set [1] (between 25 mg BID and 300 mg BID) is on record as “dose-proportional”. Further, the “CL/F, geometric mean” value in data set [1] (setting [3]) is reported as 61.3 L/h; in data set [1] (setting [4]) it was 64.2 L/h; in data set [1] (setting [5]), 54.4 L/h; in data set [1] (setting [6]) it was 74.8 L/h. Also, the “CL/F, mean ± SD” value amounted to 68.9 ± 32.1 L/h in data set [1] (setting [3]), 69.7 ± 29.8 L/h in data set [1] (setting [4]), 57.6 ± 21.7 L/h in data set [1] (setting [5]) and 77.6 ± 22.2 L/h in data set [1] (setting [6]). For the same compound, the “Cmin, mean ± SD” value came to 0.03 ± 0.03 µM in data set [1] (setting [3]), 0.06 ± 0.05 µM in data set [1] (setting [4]), 0.06 ± 0.04 µM in data set [1] (setting [5]) and 0.3 ± 0.2 µM in data set [1] (setting [6]). In addition, the “tmax, median” value in data set [1] (setting [4]) came to 2.0 h. The Cmax in data set [1] (epacadostat 50 mg BID continuous (n=13), steady state Cycle 1 Day 10, read-out: Cmax, geometric mean) turned out to be 400 nM; in data set [1] (epacadostat 50 mg BID continuous (n=13), steady state Cycle 1 Day 10, read-out: Cmax, mean ± SD), 500 ± 200 nM; in data set [1] (epacadostat 50 mg BID intermittent (n=7), steady state Cycle 1 Day 10, read-out: Cmax, geometric mean) it was 500 nM. In addition, the “Cmin, geometric mean” value in data set [1] (setting [6]) worked out at 0.2 µM. For the same compound, the AUC(0-t) in data set [1] (human, plasma, oral, 25 mg, epacadostat 25 mg BID (n=10), steady state Cycle 1 Day 10, read-out: AUC0–12h, geometric mean) amounted to 0.9 µM·h; in data set [1] (human, plasma, oral, 25 mg, epacadostat 25 mg BID (n=10), steady state Cycle 1 Day 10, read-out: AUC0–12h, mean ± SD) it was 1.1 ± 0.7 µM·h; in data set [1] (human, plasma, oral, 50 mg, epacadostat 50 mg BID continuous (n=13), steady state Cycle 1 Day 10, read-out: AUC0–12h, geometric mean), 1.8 µM·h; in data set [1] (human, plasma, oral, 50 mg, epacadostat 50 mg BID continuous (n=13), steady state Cycle 1 Day 10, read-out: AUC0–12h, mean ± SD) it was 1.9 ± 0.8 µM·h; in data set [1] (human, plasma, oral, 50 mg, epacadostat 50 mg BID intermittent (n=7), steady state Cycle 1 Day 10, read-out: AUC0–12h, geometric mean) it was 2.1 µM·h; in data set [1] (human, plasma, oral, 50 mg, epacadostat 50 mg BID intermittent (n=7), steady state Cycle 1 Day 10, read-out: AUC0–12h, mean ± SD), 2.2 ± 0.7 µM·h. Further, the AUC(0-t) in data set [1] (human, plasma, oral, 300 mg, epacadostat 300 mg BID (n=6), steady state Cycle 1 Day 10, read-out: AUC0–12h, geometric mean) is 9.2 µM·h; in data set [1] (human, plasma, oral, 300 mg, epacadostat 300 mg BID (n=6), steady state Cycle 1 Day 10, read-out: AUC0–12h, mean ± SD), 9.5 ± 3 µM·h. Further, the half-life in data set [1] (human, plasma, oral, 25 mg, epacadostat 25 mg BID (n=10), steady state Cycle 1 Day 10, read-out: t½, geometric mean (converted)) is 444 min; in data set [1] (human, plasma, oral, 25 mg, epacadostat 25 mg BID (n=10), steady state Cycle 1 Day 10, read-out: t½, mean ± SD (converted)), 546 ± 366 min; in data set [1] (human, plasma, oral, 50 mg, epacadostat 50 mg BID continuous (n=13), steady state Cycle 1 Day 10, read-out: t½, geometric mean (converted)), 354 min; in data set [1] (human, plasma, oral, 50 mg, epacadostat 50 mg BID continuous (n=13), steady state Cycle 1 Day 10, read-out: t½, mean ± SD (converted)), 426 ± 330 min; in data set [1] (human, plasma, oral, 50 mg, epacadostat 50 mg BID intermittent (n=7), steady state Cycle 1 Day 10, read-out: t½, geometric mean (converted)), 270 min; in data set [1] (human, plasma, oral, 50 mg, epacadostat 50 mg BID intermittent (n=7), steady state Cycle 1 Day 10, read-out: t½, mean ± SD (converted)) it was 306 ± 174 min. For the same compound, the half-life in data set [1] (human, plasma, oral, 300 mg, epacadostat 300 mg BID (n=6), steady state Cycle 1 Day 10, read-out: t½, geometric mean (converted)) was 324 min; in data set [1] (human, plasma, oral, 300 mg, epacadostat 300 mg BID (n=6), steady state Cycle 1 Day 10, read-out: t½, mean ± SD (converted)), 372 ± 210 min; in data set [1] (human, plasma, po, repeat oral doses of 25 mg BID, 50 mg BID, 50 mg BID intermittent, 300 mg BID, read-out: Mean terminal elimination half-life (t½)) it was 300 to 540 min. Also, in data set [1] (human, plasma, repeat oral doses of 25 mg BID, 50 mg BID, 50 mg BID intermittent, 300 mg BID, read-out: Median time of maximum observed concentration (tmax)), the Tmax is approximately 2 h. For the same compound, in data set [2], the “Geometric mean AUC” value is 9.8 µM·h.
For “ipilimumab: anti-CTLA-4 antibody, immune checkpoint inhibitor”, the Overall response rate in the data set with metastatic melanoma was 11%. In the data set with untreated melanoma, the “Patients with grade 3/4 treatment-emergent AEs” value is given as 56% and the “Rate of irAEs (grade 3/4)” value is given as 19%.

The term Cmax denotes the highest concentration seen after dosing.
